The text below walks through data of US20250002526A1, “PHARMACEUTICAL COMPOSITION HAVING ANTI-CANCER IMMUNOSTIMULATING EFFECT AND/OR IMMUNE CHECKPOINT INHIBITION POTENTIATING EFFECT” (KYUSHU UNIVERSITY, NATIONAL UNIVERSITY CORPORATION, priority 2021, published 2025).

Test [1] concerns E0771-SULT cells. In words: Trans-cancer migration assay (CCL21-induced T-cell migration). It is filed as cell-based, mouse. The note with it: E0771-SULT cells pretreated with cholenoic acid (5 μM). From the text:
FIG. 10 is a series of diagrams showing experimental results (6) in Experiment Example 1 (identification of cholenoic acid as a SULT2B1b inhibitor that promotes anti-tumor immunity). […] The data were acquired from two independent experiments, and expressed as mean±SD. * P<0.05; ** P<0.01 (one-way ANOVA followed by Dunnett's post-hoc test). The level of CCL21-induced T-cell migration in E0771-MOCK cells (CCL21+, SULT−) was used as a control for comparison. FIGS. 10B and 10C show results of enzyme kinetic analysis for SULT2B1b inhibition by cholenoic acid (3-OH-5-Chln). SULT2B1b protein (0.3 or 0.6 μM) was preincubated with cholenoic acid (20 or 40 μM) or a vehicle (2% DMSO), and reacted with cholesterol at different concentrations in the presence of 100 μM PAPS (FIG. 10B) or reacted with PAPS at different concentrations in the presence of 10 μM cholesterol (FIG. 10C). The data were fitted to the Michaelis-Menten equation (the left figures in FIGS. 10B and 10C), and their inhibition modes were analyzed with Lineweaver-Burk plots (right figures).
In carrying out the migration assay, T cells were loaded on E0771-MOCK cells (expressing only a vector; SULT−) or E0771-SULT cells (SULT+) seeded on Matrigel in an upper chamber.

For test [2], the system named is E.G7-OVA-SULT cells. In words: In vivo tumor growth of E.G7-OVA-SULT cells with OTI T cell transfer. Details: species or system mouse. The note with it: activated OTI T cells i.v. day 10, cholenoic acid oral days 13, 14 and 15. As to the method: In T cell transfer experiment, activated OTII CD4^+ T cells (2×10^6) and OTI CD8^+ T cells (5×10^5) were intravenously injected into tumor-bearing mice (see experimental results (4)).
Cholenoic acid was suspended in 0.5% (w/v) methylcellulose 400 solution (FUJIFILM Wako Pure Chemical Corporation) at a proportion of 50 mg/ml, and a 200-μl portion (10 mg) of the suspension was orally administered to mice (see experimental results (6)). To examine the effect on the tumor infiltration of OTII cells or OTI T cells, 5 mg of cholenoic acid was orally administered three times at intervals of 6 hours in 2 days before the assay.
CD4^+ T cells or CD8^+ T cells were magnetically selected from the spleen and peripheral lymph nodes of OTII and OTI TCR transgenic mice with Dynabeads mouse CD4 (Invitrogen), and then treated with DETACHaBEAD™ mouse CD4 (Invitrogen) or separated with a CD8a^+ T Cell Isolation Kit (Miltenyi Biotec). […]
The growth of tumors was monitored by measuring the vertical diameters of each tumor with a caliper twice a week and calculating the tumor volumes from the following expression.

In test [3] the test system is E0771-SULT cells. The test is described as follows: Oral cholenoic acid in mice with transplanted E0771-SULT cells: CS production and CD8+ T cell infiltration in tumor. The format is in vivo, mouse.

Entries after “also recorded” stand apart in the source; their conditions may differ.

As to `C[C@H](CCC(=O)O)[C@H]1CC[C@H]2[C@@H]3CC=C4C[C@@H](O)CC[C@]4(C)[C@H]3CC[C@]12C` [Compound 1, (R)-4-((3S,8S,9S,10R,13R,14S,17R)-3-hydroxy-10,13-dimethyl-2,3,4,7,8,9,10,11,12,13,14,15,16,17-tetradecahydro-1H-cyclopenta[a]phenanthren-17-yl)pentanoic acid], in test [1], the “CCL21-induced T-cell migration suppressed by E0771-SULT cells” value is “suppression effect was not observed; also recorded: recovery”. Further, in test [2], the “growth of E.G7-OVA-SULT cells / anti-tumor immunity of OTI T cells” value was “recovery of the effect of OTII cell or OTI T cell transplantation; also recorded: the growth of E.G7-OVA-SULT cells was suppressed”. For the same molecule, in test [3] (oral administration on days 5, 6 and 7, analysed day 8, listed as cholenoic acid), the “CS production in tumor” value is on record as “local reduction in CS production; also recorded: locally inhibited”. For the same molecule, the “CD8+ T cell infiltration in tumor” value in test [3] (oral administration on days 5, 6 and 7, low CS region on day 8) is on record as “CD8^+ T cell infiltration was induced”.
